Here are results for 3 molecules from patent publication US4853410A, “Hydroxyacetic acid derivatives for the treatment of diabetic complications” (Pfizer Inc., priority 1987, dated 1989).

This experiment concerns the target T1, aldose reductase enzyme (Homo sapiens, UniProt P15121).
T1 construct: partially purified aldose reductase enzyme obtained from human placenta; from tissue; host or cells: human placenta
Put plainly: in vitro inhibition of aldose reductase enzyme activity (procedure of U.S. Pat. No. 3,821,383, based on Hayman et al.). Type of experiment: biochemical. The source says: The substrate employed is partially purified aldose reductase enzyme obtained from human placenta.

Where two headings read alike, the source gives them in different places.

As for `C[C@@H]1C[C@@](O)(CC(=O)O)c2cc(Cl)ccc2O1` (relative stereo) [Example 15, 6-Chloro-c-4-hydroxy-r-2-methylchroman-4-acetic Acid], the IC50 (read-out: IC50, inhibition concentration calculated to show 50% inhibition of enzyme activity, partially purified aldose reductase from human placenta) was around 860 nM.

`C[C@@H]1C[C@@](O)(CC(=O)O)c2cc([N+](=O)[O-])c(Cl)cc2O1` (relative stereo) [Example 82, 7-Chloro-6-nitro-c-4-hydroxy-r-2-methylchroman-4-acetic acid] displayed an IC50 of around 51 nM.

As for `C[C@@H]1C[C@@](O)(CC(=O)O)c2cc(Cl)c(Cl)cc2S1(=O)=O` (relative stereo) [Example 113, 6,7-Dichloro-c-4-hydroxy-r-2-methyl-3,4-dihydro-2H-1-thianaphthalene-4-acetic Acid 1,1-Dioxide], the inhibition (commonly the change of the read-out against control, counted positive when it falls) at 10 µM (at 10^-5 M, partially purified aldose reductase from human placenta, read-out: percent inhibition of enzyme activity) turned out to be 37%.
